Measurements as given in PMC4519180, “Fluorescence Polarization Screening Assays for Small Molecule Allosteric Modulators of ABL Kinase Function” (PLoS ONE, 2015).

Legend:
[1] = target: T1, wild type ABL kinase core (Homo sapiens, UniProt P00519, DEL15-56); experiment: ADP Quest kinetic kinase assay, wild type ABL core; format: biochemical; conditions: for Activation constant Kact: concentration giving half-maximum velocity; for Activation constant Kact / Vmax: mean ± SE; for Vmax: maximal reaction velocity with activator; for Vmax/Kact: overall enhancement of catalytic efficiency
T1 construct: ABL core proteins (residues 1–531 with an internal deletion of residues 15–56); made in house; host or cells: Sf9 insect cells
T1 sequence (P00519 with tags, fused parts or gaps isoform P00519-2 DEL15-56): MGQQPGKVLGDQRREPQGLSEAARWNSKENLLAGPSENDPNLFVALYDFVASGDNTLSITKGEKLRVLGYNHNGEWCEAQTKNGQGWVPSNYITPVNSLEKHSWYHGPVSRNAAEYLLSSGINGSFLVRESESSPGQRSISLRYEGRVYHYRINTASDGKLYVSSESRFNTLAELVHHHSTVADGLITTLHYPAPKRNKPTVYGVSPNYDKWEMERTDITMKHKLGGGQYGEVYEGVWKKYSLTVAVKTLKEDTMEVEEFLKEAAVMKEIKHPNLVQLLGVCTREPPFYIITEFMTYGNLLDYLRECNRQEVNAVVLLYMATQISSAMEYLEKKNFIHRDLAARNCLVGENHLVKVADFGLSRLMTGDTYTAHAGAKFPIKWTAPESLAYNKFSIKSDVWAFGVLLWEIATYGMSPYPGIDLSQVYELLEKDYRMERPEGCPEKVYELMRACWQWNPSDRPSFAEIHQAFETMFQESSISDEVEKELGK
Description: (§1) The ADP Quest assay (DiscoverRx), which fluorimetrically measures kinase activity as the production of ADP, was used to determine ABL kinase reaction velocities. Assays were performed in quadruplicate in black 384 well plates (Corning #3571) in reaction volumes of 10 μL/well. Recombinant kinase protein concentrations were fixed at 40 ng/well for the wild type ABL core, 9 ng/well for the high affinity linker ABL core, and 250 ng/well for the SRC family kinase HCK. The Tyr2 substrate peptide for ABL (EAIYAAPFAKKK) as well as the SFK substrate peptide (YIYGSFK) were dissolved in the ADP Quest assay buffer (15 mM HEPES, pH 7.4, 20 mM NaCl, 1 mM EGTA, 0.02% Tween-20, 10 mM MgCl2, 0.1 mg/ml bovine γ-globulins), while ATP stocks were prepared in 10 mM Tris-HCl (pH 7.0). Each kinase reaction was initiated by the addition of ATP and read at 5 min intervals for 3 h in a SpectraMax M5 Microplate reader (Molecular Devices). To determine the substrate Km for ABL kinases, the ATP concentration was fixed at 50 μM and the substrate peptide was serially diluted from 0.2–200 μM. For ABL kinase ATP Km determination, the substrate concentration was fixed at the respective substrate Km for each of the kinases, and the ATP concentration was titrated over the range of 0.2–200 μM. The resulting progress curves were analyzed according to the method of Moroco et al.. Briefly, raw fluorescence data were corrected for non-enzymatic ADP production (no kinase or substrate control) and kinase auto-phosphorylation (rate observed in the absence of substrate), and converted to pmol ADP produced using an ADP standard curve generated under the same reaction conditions. The resulting values were normalized to the amount of kinase present in each reaction, and plotted against time. The linear portion of each progress curve was fit by regression analysis to determine the reaction velocity. Substrate and ATP Km values were determined by non-linear regression analysis using the Michaelis-Menten equation (GraphPad Prism 6).
Half-maximal effective concentrations (EC50) and activation constants (Kact) were determined for the ABL kinase core by both dipyridamole and the known ABL activator, DPH (5-(1,3-diaryl-1H-pyrazol-4-yl)hydantoin; Sigma-Aldrich). The kinase was pre-incubated with each compound (10 nM to 100 μM) for 30 min at room temperature, followed by kinase assay with the substrate and ATP concentrations fixed at their respective Km values. The rate of each reaction was plotted against compound concentration, and analyzed by non-linear regression analysis (GraphPad Prism 6) to determine the EC50 value. To determine the activation constant Kact, the basal rate of kinase activity was subtracted from the rates of reaction in the presence of each compound concentration, and plotted as a function of compound concentration. The resulting curves obeyed saturation kinetics and were best-fit by the following equation [19]: Va= Vact[L]/(Kact+[L]) where Va is the reaction velocity in the presence of each activator concentration, Vact is the maximal reaction velocity, L is the activator concentration, and Kact is the activator concentration that yields half-maximal reaction velocity.

[2] = target: T1, wild type ABL kinase core; experiment: ADP Quest kinetic kinase assay, wild type ABL core; format: biochemical; conditions: 30 min pre-incubation; ATP and substrate at Km; mean ± SE, triplicate; read-out: EC50 for activation of ABL core
[3] = system: ABL core with high-affinity linker (HAL); experiment: ADP Quest kinetic kinase assay, high-affinity linker ABL core; format: biochemical, human; conditions: 10 μM; ATP and substrate at Km
Description: as §1, with “Recombinant kinase protein concentrations were fixed at 40 ng/well for the wild type ABL core, 9 ng/well for the high affinity linker ABL core, and 250 ng/well for the SRC family kinase HCK.” left out, “Tyr2” left out, “([…])” for “(YIYGSFK)”, “To determine the substrate Km for ABL kinases, the ATP concentration was fixed at 50 μM and the substrate peptide was serially diluted from 0.2–200 μM. For ABL kinase ATP Km determination, the substrate concentration was fixed at the respective substrate Km for each of the kinases, and the ATP concentration was titrated over the range of 0.2–200 μM.” left out, “The linear portion of each progress curve was fit by regression analysis to determine the reaction velocity.” left out

[4] = system: wild type ABL core expressed in 293T cells; experiment: ABL core autophosphorylation in transfected 293T cells (immunoblot); format: cell-based, human; conditions: for Effect on ABL phosphorylation (pY412, pY245, pY89), compound alone: compound 142 1–10 μM or DPH 10 μM
Description: ABL core proteins were expressed in human 293T cells and analyzed for kinase activity as described elsewhere. Briefly, cells were grown overnight in 60 mm plates, transfected with an expression vector for the wild type ABL core, and treated with compounds 2 h post- transfection. Cells were lysed by sonication 24 h later, and cell lysates clarified by centrifugation. ABL was immunoprecipitated via the C-terminal His-tag, resolved by SDS-PAGE, and transferred to nitrocellulose membranes for immunoblot analysis with antibodies to the ABL protein and the three autophosphorylation sites: pTyr412 (activation loop), pTyr245 (SH2-kinase linker), and pTyr89 (SH3 domain).

ABL SH3 domain = target: T2, ABL SH3 domain (Homo sapiens, UniProt P00519); experiment: FP assay with isolated ABL SH3 domain and p41 probe; format: binding; conditions: significant inhibition at 3 and 10 μM
T2 construct: we performed FP assays with the N32L protein as well as the isolated ABL SH3 domain; made in house
T2 sequence (P00519 61-121 limits assumed): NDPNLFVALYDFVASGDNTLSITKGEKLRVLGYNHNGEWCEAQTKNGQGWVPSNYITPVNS
Description: (§2) Fluorescence Polarization (FP) experiments were performed in quadruplicate in low volume black 384 well plates with a non-binding surface (Corning; catalog # 3676). Peptides and proteins were added to each well in FP assay buffer (20 mM Tris-HCl, pH 8.3) for a final assay volume of 20 μL and mixed by shaking for 5 min at room temperature. The FP signal in millipolarization (mP) units was measured at an excitation wavelength of 485 nm and emission wavelength of 515 nm in a SpectraMax M5 microplate reader (Molecular Devices) using the Softmax Pro software (version 5.4.1). Each plate was read three times and the values were averaged prior to analysis. Raw fluorescence intensity was also read at the same wavelengths for each assay.

[5] = target: T3, ABL N32L protein (Ncap-SH3-SH2-linker) (Homo sapiens, UniProt P00519, DEL15-56); experiment: Fluorescence polarization (FP) assay, ABL N32L protein with p41 probe peptide; format: binding
T3 construct: corresponding to residues 2–255 with an internal deletion of residues 15–56; Gly-His6 (GHHHHHH) (N); made in house; host or cells: E. coli Rosetta2(DE3)pLysS
T3 sequence (P00519 with tags, fused parts or gaps isoform P00519-2 DEL15-56): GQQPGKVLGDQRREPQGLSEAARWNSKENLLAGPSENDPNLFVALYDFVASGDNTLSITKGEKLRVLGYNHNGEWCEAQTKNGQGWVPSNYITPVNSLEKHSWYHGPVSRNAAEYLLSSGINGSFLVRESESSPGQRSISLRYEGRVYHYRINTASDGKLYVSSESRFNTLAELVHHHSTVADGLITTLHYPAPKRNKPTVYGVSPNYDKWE
Description: as §2
A collection of 1200 FDA-approved small molecules (Prestwick Chemical, Inc.) was used in a pilot screen with the FP assay. Each library compound was screened at 10 μM and a final DMSO concentration of 1%. Compounds were added to 384-well assay plates first, followed by a pre-mixed complex of the ABL N32L protein (25 μg) and the p41 probe peptide (50 nM). Each plate also contained twenty-eight wells of the wild type N32L protein plus p41 probe and DMSO as positive controls as well as twenty-eight wells of mutant ABL N32L-W118A protein plus p41 probe peptide and DMSO as negative controls. Each plate was mixed on the shaker for 5 min, read three consecutive times, and the average FP signal for each well was calculated. To identify potential hit compounds, three measures were used: (i) average FP signal; (ii) control normalized percent inhibition, in which the FP signal with each compound was normalized to the mean FP signal of the positive and negative plate controls according to the formula: [(sample FP–mean FPWT) / (mean FPW118A –mean FPWT) x 100] [22, 23]; (iii) Z score, a statistical measure of variation of the mean sample FP signal that is independent of plate controls, calculated according to the formula: [(sample FP–mean FPsamples) / standard deviationsamples] [22, 23]. […]

SRC-family kinase HCK = target: T4, SRC-family kinase HCK (Homo sapiens, UniProt P08631, Q523E/Q524E/Q525I); experiment: ADP Quest kinetic kinase assay, HCK; format: biochemical; conditions: 1 μM; recombinant near-full-length downregulated HCK
T4 construct: made in house; host or cells: Sf9 insect cells
T4 sequence (P08631 78-526 Q523E/Q524E/Q525I limits assumed): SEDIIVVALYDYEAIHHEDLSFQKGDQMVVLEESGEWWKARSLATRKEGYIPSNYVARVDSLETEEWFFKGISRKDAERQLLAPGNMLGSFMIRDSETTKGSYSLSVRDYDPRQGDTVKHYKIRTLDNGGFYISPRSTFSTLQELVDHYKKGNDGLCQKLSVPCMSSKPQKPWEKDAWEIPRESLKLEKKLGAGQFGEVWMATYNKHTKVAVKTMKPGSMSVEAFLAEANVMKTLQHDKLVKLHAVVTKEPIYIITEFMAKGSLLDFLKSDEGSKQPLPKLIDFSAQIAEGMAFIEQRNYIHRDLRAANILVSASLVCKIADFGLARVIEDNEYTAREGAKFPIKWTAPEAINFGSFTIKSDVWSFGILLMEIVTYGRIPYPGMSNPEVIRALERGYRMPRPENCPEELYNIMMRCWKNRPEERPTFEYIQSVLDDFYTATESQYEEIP
Description: The ADP Quest assay (DiscoverRx), which fluorimetrically measures kinase activity as the production of ADP, was used to determine ABL kinase reaction velocities. Assays were performed in quadruplicate in black 384 well plates (Corning #3571) in reaction volumes of 10 μL/well. Recombinant kinase protein concentrations were fixed at 40 ng/well for the wild type ABL core, 9 ng/well for the high affinity linker ABL core, and 250 ng/well for the SRC family kinase HCK. […] Each kinase reaction was initiated by the addition of ATP and read at 5 min intervals for 3 h in a SpectraMax M5 Microplate reader (Molecular Devices). […] The resulting progress curves were analyzed according to the method of Moroco et al.. Briefly, raw fluorescence data were corrected for non-enzymatic ADP production (no kinase or substrate control) and kinase auto-phosphorylation (rate observed in the absence of substrate), and converted to pmol ADP produced using an ADP standard curve generated under the same reaction conditions. […] Substrate and ATP Km values were determined by non-linear regression analysis using the Michaelis-Menten equation (GraphPad Prism 6).

ABL N32L protein = target: T5, ABL N32L protein (Homo sapiens, UniProt P00519, DEL15-56); experiment: Surface plasmon resonance, immobilized ABL N32L; format: binding
T5 construct: corresponding to residues 2–255 with an internal deletion of residues 15–56; Gly-His6 (GHHHHHH) (N); made in house; host or cells: E. coli Rosetta2(DE3)pLysS
Description: (§3) SPR analysis was performed on a BIAcore T100 instrument (GE Healthcare) using four-channel CM5 biosensor chips at 25°C. Recombinant purified ABL proteins were covalently attached to the CM5 chip via standard amine coupling chemistry. Compound 142 (dipyridamole; Prestwick Chemical) was prepared in 20 mM Tris-HCl, pH 8.3, 150 mM NaCl and 0.1% DMSO and flowed past the immobilized ABL protein channel and a reference channel on the biosensor at a flow rate of 50 μL/min for 3 min over a range of concentrations. The initial binding reaction was followed by dissociation for 5 min, and the chip surface was regenerated using 20 mM Tris-HCl, pH 8.3, 150 mM NaCl, 0.1% DMSO, 0.05% Tween 20 and 1 mM DTT at a flow rate of 50 μL/min for 10 min. Sensorgrams were recorded in triplicate, corrected for buffer effects, and fitted with the 1:1 Langmuir binding model using the BIAevaluation software suite version 2.0.4 (GE Healthcare).

ABL N32L WT protein = target: T6, ABL N32L WT protein (Homo sapiens, UniProt P00519, DEL15-56); experiment: Differential scanning fluorimetry; format: binding; conditions: compound 100 μM, N32L 1 μM, vs DMSO
T6 construct: corresponding to residues 2–255 with an internal deletion of residues 15–56; Gly-His6 (GHHHHHH) (N); made in house; host or cells: E. coli Rosetta2(DE3)pLysS
Description: Hit compounds (100 μM) were pre-incubated with the ABL N32L WT protein (1 μM) for 30 minutes in bicine assay buffer (10 mM bicine, 150 mM NaCl, pH 8.0). SYPRO Orange (Sigma) was added at 5X final concentration and fluorimetry profiles were acquired with a StepOnePlus real-time quantitative PCR instrument (Applied Biosystems) and software (version 2.3). Assays were performed in duplicate in sealed MicroAmp Fast 96-well qPCR plates (Applied Biosystems), and control reactions without proteins were included to correct for background fluorescence. Assays were equilibrated at 25°C for 2 minutes, followed by an increase in temperature at the rate of 1% (1.6°C/min) to 99°C, with continuous data collection. Mean fluorescence intensities, after subtracting background fluorescence, were plotted against temperature. Non-linear regression analysis using the Boltzmann sigmoid function in GraphPad Prism 6 was used to determine the Tm values, the midpoint of the melt curve between the minimum and maximum fluorescence intensities.

isolated ABL SH3 domain = target: T7, isolated ABL SH3 domain (Homo sapiens, UniProt P00519); experiment: Surface plasmon resonance, isolated SH3 domain; format: binding; conditions: SPR, data not shown
T7 construct: we performed FP assays with the N32L protein as well as the isolated ABL SH3 domain; made in house
T7 sequence (P00519 61-121 limits assumed): as the sequence (P00519 61-121 limits assumed) above
Description: as §3

| Compound | Activation constant Kact [1] [µM] | Vmax [1] [µM] | Vmax/Kact [1] | EC50 [2] [nM] | Effect on kinase activity of ABL core with HAL substitution [3] | Effect on ABL phosphorylation (pY412, pY245, pY89), compound alone [4] | FP signal with ABL SH3 protein over compound concentration range (ABL SH3 domain) | Inhibition of FP signal relative to DMSO controls (retest) ([5]; 10 μM, quadruplicate, screening assay conditions, p < 0.05) | FP signal with ABL N32L protein over compound concentration range ([5]; significant inhibition at 3 and 10 μM) | Stimulation of wild type ABL kinase activity relative to DMSO control ([1]; 10 μM, ATP and substrate at Km) | Effect on HCK reaction velocity (SRC-family kinase HCK) | kon (ABL N32L protein; 1:1 Langmuir binding model, 25°C, read-out: Association rate constant) [M⁻¹ s⁻¹] | koff (ABL N32L protein; 1:1 Langmuir binding model, 25°C, read-out: Dissociation rate constant) [s⁻¹] | Kd (ABL N32L protein; SPR, ABL N32L protein, read-out: Equilibrium dissociation constant (KD), ratio kd/ka) [µM] | Decrease in Tm (ABL N32L WT protein) | Kd (isolated ABL SH3 domain) [µM] | Effect on ABL phosphorylation (pY412, pY245, pY89) in the presence of DPH ([4]; compound 142 1–10 μM plus DPH 10 μM) | Effect of unlabeled peptide on FP signal (competition) ([5]; p41 probe 50 nM, N32L 20 μg/well, unlabeled peptide 2.5 to 100 μM) |
| --- | --- | --- | --- | --- | --- | --- | --- | --- | --- | --- | --- | --- | --- | --- | --- | --- | --- | --- |
| 5-(1,3-diaryl-1H-pyrazol-4-yl)hydantoin [DPH] | 1.02 ± 0.07 | 1.90 ± 0.4 | 1.86 | 1110 ± 500 | did not activate | very small effect |  |  |  |  |  |  |  |  |  |  |  |  |
| OCCN(CCO)c1nc(N2CCCCC2)c2nc(N(CCO)CCO)nc(N3CCCCC3)c2n1 [compound 142, dipyridamole] | 0.4 ± 0.02 | 3.2 ± 0.28 | 8.00 | 630 ± 70 | did not affect | did not affect phosphorylation | concentration-dependent decrease | significant inhibition | concentration-dependent decrease | about 40% | no effect | 3870 ± 590000 | 0.027 ± 7.2e-05 | 6.9 | more than 2 °C | 30 | remarkable enhancement of phosphorylation |  |
| QKEGERALPSIP [non-specific peptide] |  |  |  |  |  |  |  |  |  |  |  |  |  |  |  |  |  | no effect |
